Results published in ChEMBL document CHEMBL1909046, “DrugMatrix in vitro pharmacology data”.

Assays:
[1] = DRUGMATRIX: beta-Lactamase enzyme inhibition (substrate: Nitrocefin); set-up: species or system Bacillus cereus; conditions: Not Active = under 50% inhibition at 10 µM
Cytochrome P450 2E1 = Cytochrome P450 2E1 (Homo sapiens, UniProt P05181); conditions: bti-tn-5b1-4; further: in other assays of this panel Not Active means under 50% inhibition at 10 µM
Calcitonin receptor = molecular target: T1, Calcitonin receptor (Homo sapiens, UniProt P30988); type: cell membranes, Membrane; conditions: t47d; further: in other assays of this panel Not Active means under 50% inhibition at 10 µM
T1 sequence (P30988 whole entry): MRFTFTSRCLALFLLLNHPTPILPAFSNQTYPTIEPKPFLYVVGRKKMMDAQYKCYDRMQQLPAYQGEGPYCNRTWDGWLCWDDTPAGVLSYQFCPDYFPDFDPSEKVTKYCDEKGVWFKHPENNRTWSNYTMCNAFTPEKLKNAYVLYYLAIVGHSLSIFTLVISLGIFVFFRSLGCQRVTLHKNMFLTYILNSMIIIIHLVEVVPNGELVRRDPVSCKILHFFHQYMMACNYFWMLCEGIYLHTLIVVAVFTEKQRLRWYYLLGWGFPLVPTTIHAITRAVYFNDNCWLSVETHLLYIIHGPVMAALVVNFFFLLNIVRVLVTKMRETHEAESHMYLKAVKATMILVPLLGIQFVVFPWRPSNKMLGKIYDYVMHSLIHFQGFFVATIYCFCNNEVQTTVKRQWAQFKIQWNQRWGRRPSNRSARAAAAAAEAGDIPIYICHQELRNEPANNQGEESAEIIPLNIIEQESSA

[2] = molecular target: Sodium-dependent dopamine transporter (Homo sapiens, UniProt Q01959); test: DRUGMATRIX: Dopamine Transporter radioligand binding (ligand: [125I] RTI-55); type: cell membranes, CHO-K1, Membrane; conditions: cho-k1; Not Active = under 50% inhibition at 10 µM
Chain of Sodium-dependent dopamine transporter (Q01959 whole entry): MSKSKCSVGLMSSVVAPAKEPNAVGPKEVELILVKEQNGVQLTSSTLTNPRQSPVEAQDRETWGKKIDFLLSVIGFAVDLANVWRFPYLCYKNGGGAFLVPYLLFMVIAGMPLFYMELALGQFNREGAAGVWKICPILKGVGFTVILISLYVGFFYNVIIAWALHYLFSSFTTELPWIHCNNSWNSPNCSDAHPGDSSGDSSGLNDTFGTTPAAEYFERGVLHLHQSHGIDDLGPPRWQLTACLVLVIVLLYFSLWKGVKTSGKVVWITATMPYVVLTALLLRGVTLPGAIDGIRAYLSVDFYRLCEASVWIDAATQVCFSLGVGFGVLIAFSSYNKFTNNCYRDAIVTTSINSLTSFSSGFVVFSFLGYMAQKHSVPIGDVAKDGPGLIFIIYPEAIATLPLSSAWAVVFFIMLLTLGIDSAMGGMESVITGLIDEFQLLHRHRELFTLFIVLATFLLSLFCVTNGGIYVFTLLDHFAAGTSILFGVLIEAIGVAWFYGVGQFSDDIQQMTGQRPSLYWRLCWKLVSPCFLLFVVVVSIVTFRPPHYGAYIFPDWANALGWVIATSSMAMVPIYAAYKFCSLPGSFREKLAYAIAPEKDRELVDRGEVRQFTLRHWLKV

[3] = DRUGMATRIX: Glutamate, AMPA radioligand binding (ligand: [3H] AMPA); type: cell membranes, Rattus norvegicus, Wistar, Cerebral cortex, Membrane; conditions: Not Active = under 50% inhibition at 10 µM
[4] = molecular target: T2, Type-2 angiotensin II receptor (Homo sapiens, UniProt P50052); type: cell-based; conditions: cho-k1; further: in other assays of this panel Not Active means under 50% inhibition at 10 µM
T2 sequence (P50052 whole entry): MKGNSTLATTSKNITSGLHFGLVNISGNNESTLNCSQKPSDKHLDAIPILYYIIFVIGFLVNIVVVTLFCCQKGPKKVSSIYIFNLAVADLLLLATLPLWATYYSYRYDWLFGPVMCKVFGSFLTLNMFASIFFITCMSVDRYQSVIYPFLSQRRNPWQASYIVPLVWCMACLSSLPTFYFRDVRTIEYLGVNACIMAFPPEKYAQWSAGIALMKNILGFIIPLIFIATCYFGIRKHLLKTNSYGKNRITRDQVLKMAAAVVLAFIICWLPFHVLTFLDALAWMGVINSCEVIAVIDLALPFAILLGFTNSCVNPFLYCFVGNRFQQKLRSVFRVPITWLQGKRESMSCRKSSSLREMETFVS

[5] = DRUGMATRIX: GABAA, Muscimol, Central radioligand binding (ligand: [3H] Muscimol); type: cell membranes, Rattus norvegicus, Wistar, Brain, Membrane; conditions: Not Active = under 50% inhibition at 10 µM
[6] = molecular target: Vascular endothelial growth factor receptor 1 (Homo sapiens, UniProt P17948); type: cell-based; conditions: huvec; further: in other assays of this panel Not Active means under 50% inhibition at 10 µM
Chain of Vascular endothelial growth factor receptor 1 (P17948 whole entry): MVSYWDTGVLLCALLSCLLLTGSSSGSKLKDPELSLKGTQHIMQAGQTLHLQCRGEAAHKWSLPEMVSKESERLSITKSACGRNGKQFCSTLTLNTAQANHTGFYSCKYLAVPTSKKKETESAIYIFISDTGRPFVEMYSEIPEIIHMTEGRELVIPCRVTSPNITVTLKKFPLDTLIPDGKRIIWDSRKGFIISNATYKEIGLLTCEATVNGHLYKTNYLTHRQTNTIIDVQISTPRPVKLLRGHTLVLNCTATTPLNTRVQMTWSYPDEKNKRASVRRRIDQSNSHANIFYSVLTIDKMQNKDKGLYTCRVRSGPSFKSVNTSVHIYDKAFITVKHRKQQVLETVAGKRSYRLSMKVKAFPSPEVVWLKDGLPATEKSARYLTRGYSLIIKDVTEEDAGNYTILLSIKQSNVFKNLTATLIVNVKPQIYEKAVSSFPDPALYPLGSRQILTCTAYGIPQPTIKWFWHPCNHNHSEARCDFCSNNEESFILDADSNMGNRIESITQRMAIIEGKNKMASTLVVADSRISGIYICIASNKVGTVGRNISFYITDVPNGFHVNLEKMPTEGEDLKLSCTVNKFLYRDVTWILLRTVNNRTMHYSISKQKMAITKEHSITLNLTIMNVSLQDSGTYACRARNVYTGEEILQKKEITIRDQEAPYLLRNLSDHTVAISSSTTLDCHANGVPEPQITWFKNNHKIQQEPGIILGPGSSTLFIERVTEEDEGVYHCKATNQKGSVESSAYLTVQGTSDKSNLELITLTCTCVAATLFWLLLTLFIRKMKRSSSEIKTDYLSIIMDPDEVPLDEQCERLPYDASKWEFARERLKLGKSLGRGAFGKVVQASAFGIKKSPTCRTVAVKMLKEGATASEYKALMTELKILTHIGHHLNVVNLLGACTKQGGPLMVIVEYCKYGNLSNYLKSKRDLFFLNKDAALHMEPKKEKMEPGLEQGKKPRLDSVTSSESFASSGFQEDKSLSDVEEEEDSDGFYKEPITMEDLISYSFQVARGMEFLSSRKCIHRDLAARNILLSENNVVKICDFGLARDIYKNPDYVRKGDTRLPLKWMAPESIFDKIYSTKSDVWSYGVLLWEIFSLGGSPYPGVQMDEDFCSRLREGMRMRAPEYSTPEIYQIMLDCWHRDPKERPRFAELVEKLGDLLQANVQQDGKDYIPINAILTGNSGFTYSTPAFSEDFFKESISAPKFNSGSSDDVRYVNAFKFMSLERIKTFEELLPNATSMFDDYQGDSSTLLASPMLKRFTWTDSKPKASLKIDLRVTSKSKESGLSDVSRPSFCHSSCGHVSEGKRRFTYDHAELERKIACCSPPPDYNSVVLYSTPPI

D(4) dopamine receptor = molecular target: T3, D(4) dopamine receptor (Homo sapiens, UniProt P21917); test: DRUGMATRIX: Dopamine D4.2 radioligand binding (ligand: [3H] Spiperone); type: cell membranes, CHO-K1, Membrane; conditions: cho-k1; Not Active = under 50% inhibition at 10 µM
T3 sequence (P21917 whole entry): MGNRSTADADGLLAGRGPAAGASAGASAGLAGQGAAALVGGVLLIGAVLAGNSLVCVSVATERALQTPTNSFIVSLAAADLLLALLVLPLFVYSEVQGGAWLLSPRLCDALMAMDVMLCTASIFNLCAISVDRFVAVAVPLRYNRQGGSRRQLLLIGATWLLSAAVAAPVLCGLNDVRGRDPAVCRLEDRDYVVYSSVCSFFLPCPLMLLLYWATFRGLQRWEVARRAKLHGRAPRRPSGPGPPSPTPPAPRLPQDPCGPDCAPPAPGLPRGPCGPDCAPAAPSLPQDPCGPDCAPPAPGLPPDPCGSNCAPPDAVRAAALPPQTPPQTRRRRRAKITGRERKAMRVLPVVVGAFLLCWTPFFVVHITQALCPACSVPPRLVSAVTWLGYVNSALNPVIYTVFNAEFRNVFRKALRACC

[7] = molecular target: C-C chemokine receptor type 2 (Homo sapiens, UniProt P41597); type: cell membranes, CHO-K1, Membrane; conditions: cho-k1; further: in other assays of this panel Not Active means under 50% inhibition at 10 µM
Chain of C-C chemokine receptor type 2 (P41597 whole entry): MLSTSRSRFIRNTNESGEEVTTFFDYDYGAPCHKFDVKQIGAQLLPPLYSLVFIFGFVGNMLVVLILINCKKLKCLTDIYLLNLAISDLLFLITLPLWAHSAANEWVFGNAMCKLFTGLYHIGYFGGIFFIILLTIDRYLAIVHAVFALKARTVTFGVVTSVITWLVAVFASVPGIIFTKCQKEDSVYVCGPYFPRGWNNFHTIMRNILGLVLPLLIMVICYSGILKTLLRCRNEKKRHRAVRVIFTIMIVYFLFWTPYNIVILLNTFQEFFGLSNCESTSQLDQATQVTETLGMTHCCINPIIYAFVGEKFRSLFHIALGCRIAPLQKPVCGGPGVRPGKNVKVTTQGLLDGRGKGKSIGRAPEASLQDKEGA

Chain of Cytochrome P450 2E1 (P05181 whole entry): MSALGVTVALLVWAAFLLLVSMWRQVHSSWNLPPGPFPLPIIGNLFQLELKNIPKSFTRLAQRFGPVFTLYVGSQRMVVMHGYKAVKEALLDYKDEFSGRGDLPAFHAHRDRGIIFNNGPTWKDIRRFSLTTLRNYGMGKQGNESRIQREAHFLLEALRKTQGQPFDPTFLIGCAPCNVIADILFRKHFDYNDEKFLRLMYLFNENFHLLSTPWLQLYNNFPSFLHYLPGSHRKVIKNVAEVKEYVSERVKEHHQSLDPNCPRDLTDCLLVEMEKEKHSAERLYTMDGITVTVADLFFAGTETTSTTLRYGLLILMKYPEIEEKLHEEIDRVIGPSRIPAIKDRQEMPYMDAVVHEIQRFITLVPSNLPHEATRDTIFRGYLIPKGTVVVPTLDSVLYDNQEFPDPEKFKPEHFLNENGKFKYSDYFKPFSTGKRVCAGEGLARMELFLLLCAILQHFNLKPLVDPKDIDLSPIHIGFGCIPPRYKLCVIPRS

GOLD SODIUM THIOMALATE
Not Active: IC50 [1] | Ki [1] | IC50 (Cytochrome P450 2E1) | Ki (Cytochrome P450 2E1) | IC50 (Calcitonin receptor) | Ki (Calcitonin receptor) | IC50 [2] | Ki [2] | IC50 [3] | Ki [3] | IC50 [4] | Ki [4] | IC50 [5] | Ki [5] | IC50 [6] | Ki [6] | IC50 (D(4) dopamine receptor) | Ki (D(4) dopamine receptor) | IC50 [7] | Ki [7]

OXALIPLATIN
Not Active: IC50 [1] | Ki [1] | IC50 (Cytochrome P450 2E1) | Ki (Cytochrome P450 2E1) | IC50 (Calcitonin receptor) | Ki (Calcitonin receptor) | IC50 [2] | Ki [2] | IC50 [3] | Ki [3] | IC50 [4] | Ki [4] | IC50 [5] | Ki [5] | IC50 [6] | Ki [6] | IC50 (D(4) dopamine receptor) | Ki (D(4) dopamine receptor) | IC50 [7] | Ki [7]
